The values that follow come from patent US20150018409A1, “CHIMERIC POLYPEPTIDES AND THEIR USE” (ADRIACELL S.P.A., priority 2003, published 2015).

Assay [1] has as its system U2OS cells. The assay can be described thus: FACS analysis of DNA content / cell cycle distribution. Format: cell-based, human. The following applies: for interaction with SCPVUTAT on the cell cycle: simultaneous incubation with SCPVUTAT
The protocol:
The distribution of the various phases of the cell cycle of the protein transduced cells was analysed by FACS analysis. Distribution of the DNA content of the cell populations was detected. 2n represents a diploid DNA equivalent (non replicated; G1 phase), 4n represents the tetraploid DNA equivalent (replicated; G2/M phase). For the FACS analysis the cells were separated employing the DDM mode that allows to estimate DNA content of a single cell. U2OS cells were grown for 24 hours (upper row) or 48 hours (lower row) in the presence of increasing amounts of […] (10 nM, 50 nM, 100 nM) as indicated and with only one addition of proteins; non treated cells (control); cells treated with a nuclease impaired derivative of […] (SC34, 100 nM). All the histograms shown represent a measure of DNA content relative to the cell numbers as indicated only on the upper right panel.
U2OS cells were incubated with […] (10 nM, panel B), or with H2O2 (10 μM, panelC), or both ([…], 10 nM; H2O2, 10 μM; panel D), or with no agent as a control (panel A). Further treatment cells were analysed in FACS for DNA content; the percentage of the various cell cycle phases are indicated at the bottoms of the individual histograms.
Finally, to confirm that the DSB's that are produced in vivo also induce perturbations in the cell cycle, DNA content in the various phases of the cell cycle was analysed by Fluorescence Activated Cell Sorting (FACS) after transduction of the proteins of the invention. After the treatment with diverse proteins at various concentrations and during different timepoints, the cells were fixed in 70% ethanol, treated with RNAse A and stained with propidium […].
The FACS analysis was done using a FACSCalibur™ (Becton Dickinson) apparatus. The obtained data were evaluated with the CellQuest™ software program package. At least 3×10^4 single events for every sample were analysed in the DDM mode. The statistic analysis of the DNA content distribution during the cell cycle was done with the MODFIT LT™ software program package. A 2N diploid DNA content correspond to cells in the G1 phase of the cell cycle, 4N represents a relative tetraploid DNA content and corresponds to G2 and/or M phase of the cell cycle. An intermediate DNA content represents S phase corresponding to a population actively replicating DNA during the cell cycle and a content that is below diploid 2N represents cells in apoptosis.
U2OS cells were incubated with 10 nM […] and with 10 μM H2O2 alone or in combination ant the cell cycle profile was analysed by FACS.
(In flow cytometry, cells or beads pass a laser one at a time.)

For assay [2], the system named is U2OS osteosarcoma cells and IMR90 primary fibroblasts. Description: Protein transduction of the chimeric proteins (immunoblot and immunofluorescence with PvuII antibody). Format: cell-based, human. As to the method: For a comparison aliquots of the supernatants of the cell culture taken before extract preparation were included in the analysis (upper panel, SUPERNATANT).
In addition DNA costaining was obtained with propidium J after RNAse A digest (red, upper panel).
The transduction capacity of the chimeric proteins was assayed in U2OS osteosarcoma cells and in the IMR90 primary fibroblasts cells. The cells were grown in DMEM containing 10% FCS and treated with the proteins of the invention in the same medium, in general in the presence of antibiotics. After 10 minutes of incubation of the cells with increasing quantities of the fusion protein […] (1, 10, 50, 100, 200 nM) and with the protein SCPVU (single chain PvuII without TAT) and SC34 as a control (prepared as described for […] except that the enzyme PvuII contains a mutant in position 34) cell extracts were prepared, separated on SDS-PAGE and assayed by immuno-blot analysis with a monospecific antibody to PvuII. Further, uptake was assayed after 30 min of incubation by immuno-fluorescence analysis using PvuII specific antibodies and nuclear costaining with propidium iodide.
A general note: A western blot detects proteins with antibodies after separation by electrophoresis.

Assay [3] deals with ATM, ATR and TOR. As to conditions: Sarkaria et al., 1999; target not stated with the value; cited from earlier work.
The subject of assay [4] is AT-5 cells (ATM negative). The following applies: SCPVUTAT 100 nM or HU 1 mM.
Experimental: AT-5 cells, negative for ATM were treated with [sequence]
(§1) P53 phosphorylation on Ser15 in response to [sequence] treatment was assayed in ATM positive or negative cell lines (MRC-5 and AT-5 respectively). For comparison parallel experiments were done with hydroxyurea (HU). […] For this immunoblotting experiments were done with extracts after treatment, by using specific antibodies to a phosphorylated Ser15 in p53 for specific detection.
Assay [5] deals with MRC-5 cells (ATM positive). The following applies: SCPVUTAT 100 nM or HU 1 mM.
Experimental: [sequence] dependent Ser^15 phosphorylation of p53. The ATM positive cell-line MRC5 was treated with [sequence] (100 nM, SC) or with hydroxyurea (1 mM, HU) for the time periods as indicated; as a control non treated cells were used (O).
as §1
In assay [6] the test system is HCT116 (p53(+/+)) cells. The assay can be described thus: Cell cycle arrest point: nuclear morphology and immunofluorescence of cyclin B1 and Cdc25C. Format: cell-based, human. As to conditions: 30 hours; SCPVUTAT 100 nM or Taxol 0.2 μg/ml. As to the method:
Microscopic analysis of the HCT116 (p53(+/+)) cells not treated, or treated with […] (100 nM) for 30 hours, or with taxol (0.2 μg/ml). Immunofluorescence analysis was done with primary antibodies specific for cyclin B1 or specific for Cdc25C and coloured with secondary conjugates of FITC (green, cyclinB1) or TRITC (red, Cdc25C).
Moreover, the initiation of mitosis, i.e. induced with the microtuble blocking agents Nocodazol or Taxol, can be detected by the nuclear activity of the Cdc2 kinase and also by nuclear localisation of Cdc25C. These assays allow to dissect the exact point of cell cycle arrest after […] treatment and this further allows to detect disturbations in this phase of the cell cycle relative to a positive control. Similar experiments are well known in the art also for other phases of the cell cycle. The assay shown in FIG. 7A and the immunofluorescence analysis shown in FIG. 14 show examples for these types of experiments.
HCT116 (p53(+/+)) not treated, or treated for 30 hours with […] (100 nM), or with Taxol (0.2 μg/ml) were fixated with 3% PFA and treated with specific antibodies to cyclin B1 or for Cdc25C. The immunofluorescence was analysed with the microscope (see FIG. 14) with specific primary antibodies to cyclin B1 conjugated to FITC labelled secondary antibodies (green) or with specific primary antibodies to Cdc25C conjugated to TRITC labelled secondary antibodies (red).

The test system of assay [7] is U2OS cells. Description: Histone H2AX Ser139 phosphorylation, single cell fluorescence microscopy. The assay is classed as cell-based, human. As to conditions: Wortmanin 50 μM with SCPVUTAT 100 nM, 60 minutes.
Experimental: U2OS cells were treated with [sequence] (100 nM, central column) for 60 minutes, in addition treatment was done with Wortmanin (50 μM, WM, right column), or with no agent as a control (left column). After treatment cells were stained with specific antibodies to H2AX-Ser-139 phosphorylated (red) or for Histone 2B (served as a control, green) and analysed on a single cell level by fluorescence microscopy.
As another example for a phosphorylation of a substrate of ATM in response to the object of the invention, histone H2AX Ser^139 phosphorylation was analysed. […] U2OS cells were treated for 60 minutes with [sequence], fixed and analysed for histone H2AX Ser^139 phosphorylation. Cells were analysed with a specific antiserum to phospho-Ser 139 on histone H2AX and analysed in the microscope on a single cell basis. As a control histone 2B was analysed.

For `Cn1c(=O)c2c(ncn2C)n(C)c1=O` [caffeine], in assay [1] (100 nM SCPVUTAT in combination with 2 mM caffeine, 30 hours), the “effect of caffeine on the SCPVUTAT cell cycle stop” value is reported as “antagonist to the effect of SCPVUTAT in vivo”. Moreover, in assay [1] (2 mM caffeine), the “cell cycle effect of caffeine alone” value was “moderate delay in the G1 phase”. For the same molecule, the “influence of caffeine on the transduction capacity of SCPVUTAT” value in assay [2] is “nor does it influence the transduction capacity”. In addition, the concentration for half-maximal inhibition (IC50) in assay [3] was under 1000 µM.

For the molecule `NC(=O)NO` [HU, hydroxyurea, reference compound], the p53-Ser15 phosphorylation entry in assay [4] and in assay [5] was “comparable however consistently higher” in each case. As for `OO` [H2O2], in assay [1] (10 μM H2O2 alone), the “change of G2 phase” value is on record as “no increase in G2”. For the same molecule, the “interaction with SCPVUTAT on the cell cycle” value in assay [1] was “synergistic effect”. `C[C@@]1(CO)[C@H](O)CC[C@@]2(C)[C@H]1CC[C@H]1C[C@@H]3C[C@@]12CC[C@]3(O)CO` [aphidicolin]: the “interaction with SCPVUTAT on the cell cycle” value in assay [1] is reported as “no synergistic effect was observed”. Take `CC(=O)O[C@H]1C(=O)[C@@]2(C)[C@H]([C@H](OC(=O)c3ccccc3)[C@]3(O)C[C@H](OC(=O)[C@H](O)[C@@H](NC(=O)c4ccccc4)c4ccccc4)C(C)=C1C3(C)C)[C@]1(OC(C)=O)CO[C@@H]1C[C@@H]2O` [Taxol, reference compound]: the “cell cycle stop from localisation of Cdc25C and cyclin B” value in assay [6] is listed as “stop in M phase”. For `COC[C@H]1OC(=O)c2coc3c2[C@@]1(C)C1=C(C3=O)[C@@H]2CCC(=O)[C@@]2(C)C[C@H]1OC(C)=O` [Wortmanin, reference compound], in assay [7], the “effect on SCPVUTAT induced histone H2AX Ser139 phosphorylation” value is reported as “antagonist for this reaction”.

By IC50 is commonly meant the concentration that inhibits the measured activity by half.
